# Data as given in publication PMC6216040, “Repurposing of an old drug: In vitro and in vivo efficacies of buparvaquone against Echinococcus multilocularis” (International Journal for Parasitology: Drugs and Drug …, 2018).
# Tested on: E. multilocularis metacestodes
# Experiment: PGI-assay: drug-induced damage on in vitro cultured metacestodes (Pathogen Box screening cascade and EC50)
# Format: cell-based, Echinococcus multilocularis
# Settings: for PGI release, % of the Tx-100 control, 5d / PGI release, % of the Tx-100 control, 12d: 10 µM, singlets; for PGI release, % of the Tx-100 control, 5d / PGI release, % of Tx-100 control, average, 5d: 5 days of incubation; for PGI release, % of the Tx-100 control, 12d / PGI release, % of Tx-100 control, average, 12d: 12 days of incubation; for activity in the screen at 10 μM (confirmed in triplicates, >20% relative PGI release): 5 and 12 days
# [1] = confirmatory screening at 10 µM in triplicates, values as % of Tx-100 control
Structure (SMILES),"PGI release, % of the Tx-100 control, 5d [%]","PGI release, % of the Tx-100 control, 12d [%]",also measured
O=C(Nc1ccc(N2CCNCC2)nc1)c1oc(-c2ccccc2)nc1C(F)(F)F [MMV024937],14.66,18.16,–
CS(=O)(=O)c1cccc(-c2cnc3[nH]cc(-c4ccc(CCC(=O)O)cc4)c3c2)c1 [MMV026020],-2.92,-0.12,–
Nc1nccc2ccc(Oc3ccncc3)cc12 [MMV026313],-0.49,-0.99,–
CCn1ncc2c(NC3CCOCC3)c(CNC(=O)c3ccnn3C)c(C)nc21 [MMV026356],-0.13,0.36,–
OCc1ccc(-c2cncc(Nc3cccc(Cl)c3)c2)cc1 [MMV026468],9.97,54.98,"PGI release, % of Tx-100 control, average, 5d (1 µM, triplicates): 0.57%; PGI release, % of Tx-100 control, average, 12d (1 µM, triplicates): -1.50%; activity in the screen at 10 μM (confirmed in triplicates, >20% relative PGI release): active; PGI release, % of Tx-100 control, average, 5d [1]: 0.62%; PGI release, % of Tx-100 control, average, 12d [1]: 52.89%"
O=C(NCCc1ccccc1)c1cc(-c2cccnc2)cnc1NCC1CC1 [MMV026490],-0.0463,-0.43,–
CC(C)(C)CN1C(=O)C(c2ccccc2)(c2ccccc2)N=C1N [MMV026550],3.21,3.61,–
OCCc1ccc(Nc2nccc(-c3nnc4ccccn34)n2)cc1 [MMV028694],1.98,1.79,–
CC(C)(CN)c1nc(-c2ccc(Cl)c(O)c2)c(-c2ccnc(N)n2)[nH]1 [MMV030734],-0.31,-0.25,–
CNC(=O)C1Cc2c([nH]c3cc(Cl)ccc23)C2(CCN(CCc3ccccc3)CC2)N1 (stereo not drawn) [MMV031011],4.51,91.49,"PGI release, % of Tx-100 control, average, 5d [1]: -0.91%; PGI release, % of Tx-100 control, average, 12d [1]: -1.45%"
FC(F)(F)c1cccc(-c2nc3c(NCc4ccncc4)nccc3[nH]2)c1 [MMV032967],0.25,-2.81,–
O=C1COCc2ccc(Br)cc2N1Cc1ccc(C(F)(F)F)cc1 [MMV032995],0.37,1.79,–
c1ccc(Oc2ccc(-c3cc(N4CCOCC4)n[nH]3)cc2)cc1 [MMV045105],-0.42,0.07,–
COc1cc(C(F)(F)F)nc2ccc(C)c(N)c12 [MMV047015],-0.69,-0.79,–
N#Cc1ccc(-c2ccc(OCC(N)=O)cc2)cc1 [MMV053220],-4.06,-1.40,–
CC(=O)N1CCc2cc3nc(C)cc(C)c3cc21 [MMV054312],0.77,-0.65,–
Cc1cc(C)nc(-n2nc(C)cc2Nc2ccccc2)n1 [MMV062221],-5.83,1.28,–
Cc1nn(Cc2ccccc2)c(Cl)c1C(=O)NC1CCCCCC1 [MMV063404],0.0181,0.28,–
FC(F)(F)c1nnc2ccc(Cl)nn12 [MMV069458],-0.54,0.02,–
O=C1N(Cc2cc3ccccc3s2)CC2CN(Cc3ccccc3)CCN12 (stereo not drawn) [MMV084603],-3.64,0.62,–
O=C(Nc1cnc2ccccc2c1)c1cccc(-n2cnnn2)c1 [MMV084864],-2.18,-3.92,–
COc1cncc(-c2cncc(N3CCN(c4ccncc4)CC3)n2)c1 [MMV085071],0.27,0.48,–
O=C(C(Cc1c[nH]c2ccccc12)NS(=O)(=O)c1ccc(Cl)cc1)N1CCCCC1 (stereo not drawn) [MMV085210],-0.40,0.0121,–
CCCNC(=O)N1CCC2(CC1)CC(=O)c1cc(C)ccc1O2 [MMV085230],-0.40,-0.0743,–
N#Cc1ccc(-c2cnc(N)c(-c3ccc(C(N)=O)cc3)n2)cc1 [MMV085499],7.58,0.90,–
CCOC(=O)NC(=O)c1ccsc1NC(=O)c1nc2ccccc2s1 [MMV090930],11.85,28.09,"PGI release, % of Tx-100 control, average, 5d (1 µM, triplicates): 2.46%; PGI release, % of Tx-100 control, average, 12d (1 µM, triplicates): 6.26%; activity in the screen at 10 μM (confirmed in triplicates, >20% relative PGI release): active; PGI release, % of Tx-100 control, average, 5d [1]: 13.69%; PGI release, % of Tx-100 control, average, 12d [1]: 46.13%"
O=C(Nc1nnc(-c2ccc(Cl)cc2)o1)c1cccc(C(F)(F)F)c1 [MMV102872],32.35,28.26,"PGI release, % of Tx-100 control, average, 5d [1]: -0.31%; PGI release, % of Tx-100 control, average, 12d [1]: -1.19%"

Structure (SMILES),"PGI release, % of the Tx-100 control, 5d [%]","PGI release, % of the Tx-100 control, 12d [%]",also measured
CCC(C)NC(=O)c1ccc(NC(=O)C2(c3ccccc3)CCCC2)cc1 (stereo not drawn) [MMV146306],-1.42,-5.77,–
CCOC(=O)c1c(NC(=O)c2c(F)c(F)c(F)c(F)c2F)sc(C(N)=O)c1C [MMV153413],1.93,9.70,–
Cc1cc(Cl)ccc1NC(=O)CCc1ccc(S(=O)(=O)NCC(C)C)cc1 [MMV161996],-0.05,0.10,–
CNC(=O)C1Cc2ccccc2N1C(=O)Cc1ccc(F)cc1 (stereo not drawn) [MMV188296],-0.45,-0.28,–
COc1ccc(C2(C(=O)Nc3ccc(Br)cc3)CCCC2)cc1 [MMV200748],-1.03,-1.33,–
COc1ccc(OC(C)C(=O)Nc2ccc(Cl)cc2C)cc1 (stereo not drawn) [MMV202458],0.0146,6.22,–
CCC(=O)Nc1ccccc1C(=O)Nc1ccccn1 [MMV202553],-0.91,0.26,–
COc1cccc(NC(=O)c2c(NC(=O)c3cccnc3)sc3c2CCC3)c1 [MMV228911],6.25,18.91,–
COc1cccc(-n2nnnc2S(C)(=O)=O)c1 [MMV272144],-0.69,0.11,–
COc1cccc(-c2cc3c(Nc4cccnc4)nccc3[nH]2)c1 [MMV392832],0.24,-1.65,–
CN1CCN(c2nccc3[nH]c(-c4cccc(F)c4)cc23)CC1 [MMV393144],-0.30,0.40,–
Cc1cc(=O)[nH]c(-n2nc(C)cc2C)n1 [MMV393995],-1.49,-4.16,–
CCc1nc2ccc(C(=O)NCc3ccc4c(c3)OCO4)cn2c1N(C)Cc1cccs1 [MMV407539],-0.20,24.66,"PGI release, % of Tx-100 control, average, 5d [1]: -1.01%; PGI release, % of Tx-100 control, average, 12d [1]: 3.14%"
CCOc1ccccc1NC(C)C(=O)Nc1cc(C(F)(F)F)ccc1N1CCOCC1 (stereo not drawn) [MMV407834],-0.40,-0.68,–
COC(=O)c1c(NC(=O)c2c(F)c(F)c(F)c(F)c2F)sc2c1CCCCC2 [MMV461553],3.92,19.16,–
CC(C)(C)c1cnc(NC(=O)c2ccccc2O)s1 [MMV495543],-1.40,-5.38,–
CS(=O)(=O)Cc1nc2ccccc2oc1=O [MMV553002],-3.93,-1.57,–
c1ccc(-c2cc(N3CCCCC3)c3ccccc3n2)nc1 [MMV560185],0.52,-0.29,–
CCN(CC)S(=O)(=O)c1ccc(C(=O)Nc2cc(C)nn2-c2nc(C)c(C)c(=O)[nH]2)cc1 [MMV595321],-0.14,-1.13,–
CCC(Sc1nc2ccccc2o1)C(=O)Nc1nnc(C)s1 (stereo not drawn) [MMV611037],-0.81,-1.11,–
O=C(NCCN1CCCC1)c1cc(NCCN2CCOCC2)nc2ccc(Cl)cc12 [MMV634140],0.01,-0.0759,–
CN1CCCC1CCO[C@](C)(c1ccccc1)c1ccc(Cl)cc1 (stereo partly drawn) [MMV637229],4.53,10.67,–
O=C(Nc1ccc2c(c1)B(O)OC2)c1ccccc1C(F)(F)F [MMV652003],1.72,7.32,–
Cc1nc(-c2ccccn2)nc(N(C)CCc2ccccc2)c1Cl [MMV658988],22.86,30.08,"PGI release, % of Tx-100 control, average, 5d [1]: 4.97%; PGI release, % of Tx-100 control, average, 12d [1]: 10.18%"
Cc1nc(-c2ccccn2)nc(NCCc2ccc(S(C)(=O)=O)cc2)c1Cl [MMV658993],-0.19,1.18,–
Cc1nc(-c2ccccn2)nc(N2CCC(Cc3ccccc3)C2)c1Cl (stereo not drawn) [MMV659004],11.75,58.47,"PGI release, % of Tx-100 control, average, 5d [1]: 2.44%; PGI release, % of Tx-100 control, average, 12d [1]: 11.08%"
